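Results reflect a 48-hour exposure of cells in 96-well plates to compound at five concentrations. Abbreviation: GI50, concentration required for 50% inhibition of growth.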 The source made the active and inactive calls. Cut-off read from the data, not from the text of the source: active = GI50 up to about 1.1 µM and inactive = higher.
Legend:
Experiment in all cases: inhibition of tumour cell growth, NCI panel, 48 h
A498 = test system: A498
PC-3 = test system: PC-3
OVCAR-8 = test system: OVCAR-8
ACHN = test system: ACHN
HOP-62 = test system: HOP-62
SK-MEL-5 = test system: SK-MEL-5
UACC-257 = test system: UACC-257
HCC 2998 = test system: HCC 2998
MDA-MB-231 = test system: MDA-MB-231
U-251 = test system: U-251
NCI-H522 = test system: NCI-H522
K562 = test system: K562
HT-29 = test system: HT-29
SW-620 = test system: SW-620
NCI-H460 = test system: NCI-H460
SF-268 = test system: SF-268
A549 = test system: A549
MDA-N = test system: MDA-N
SF-539 = test system: SF-539
HCT-15 = test system: HCT-15
CCRF-CEM = test system: CCRF-CEM
TK-10 = test system: TK-10
KM12 = test system: KM12
SK-OV-3 = test system: SK-OV-3
NCI-H23 = test system: NCI-H23
BT-549 = test system: BT-549
MDA-MB-435 = test system: MDA-MB-435
NCI-H226 = test system: NCI-H226
RPMI-8226 = test system: RPMI-8226
HCT-116 = test system: HCT-116
Hs-578T = test system: Hs-578T
COLO 205 = test system: COLO 205
SF-295 = test system: SF-295
DU-145 = test system: DU-145
EKVX = test system: EKVX
SR = test system: SR
SN12C = test system: SN12C
SK-MEL-28 = test system: SK-MEL-28
MCF7 = test system: MCF7
IGROV-1 = test system: IGROV-1
SNB-75 = test system: SNB-75
T47D = test system: T47D
HL-60 = test system: HL-60
SK-MEL-2 = test system: SK-MEL-2
SNB-19 = test system: SNB-19
M14 = test system: M14
786-0 = test system: 786-0
LOX IMVI = test system: LOX IMVI
NCI/ADR-RES = test system: NCI/ADR-RES
OVCAR-5 = test system: OVCAR-5
MOLT-4 = test system: MOLT-4
OVCAR-3 = test system: OVCAR-3
UO-31 = test system: UO-31
CAKI-1 = test system: CAKI-1
OVCAR-4 = test system: OVCAR-4
UACC-62 = test system: UACC-62
HOP-92 = test system: HOP-92
RXF 393 = test system: RXF 393
Malme-3M = test system: Malme-3M

For `c1cn(C23C4C5C6C4C2C6C53)cn1` (stereo not drawn), the GI50 (A498) was > 100 µM (inactive), the GI50 (PC-3) was > 100 µM (inactive) and the GI50 (OVCAR-8) was > 100 µM (inactive). For the same molecule, the GI50 (ACHN) was > 100 µM (inactive), the GI50 (HOP-62) was > 100 µM (inactive) and the GI50 (SK-MEL-5) was > 100 µM (inactive). The GI50 (UACC-257) was > 100 µM (inactive), the GI50 (HCC 2998) was > 100 µM (inactive) and the GI50 (MDA-MB-231) was > 100 µM (inactive). The GI50 (U-251) was > 100 µM (inactive), the GI50 (NCI-H522) was > 100 µM (inactive) and the GI50 (K562) was > 100 µM (inactive). For the same molecule, the GI50 (HT-29) was > 100 µM (inactive), the GI50 (SW-620) was > 100 µM (inactive) and the GI50 (NCI-H460) was > 100 µM (inactive). The GI50 (SF-268) was > 100 µM (inactive), the GI50 (A549) was > 100 µM (inactive) and the GI50 (MDA-N) was > 100 µM (inactive). The GI50 (SF-539) was > 100 µM (inactive), the GI50 (HCT-15) was > 100 µM and the GI50 (CCRF-CEM) was > 100 µM (inactive). For the same molecule, the GI50 (TK-10) was > 100 µM (inactive), the GI50 (KM12) was > 100 µM (inactive) and the GI50 (SK-OV-3) was > 100 µM (inactive). For the same molecule, the GI50 (NCI-H23) was > 100 µM (inactive), the GI50 (BT-549) was > 100 µM (inactive) and the GI50 (MDA-MB-435) was > 100 µM (inactive). The GI50 (NCI-H226) was > 100 µM (inactive), the GI50 (RPMI-8226) was > 100 µM (inactive) and the GI50 (HCT-116) was > 100 µM (inactive). For the same molecule, the GI50 (Hs-578T) was > 100 µM (inactive), the GI50 (COLO 205) was > 100 µM (inactive) and the GI50 (SF-295) was > 100 µM (inactive). For the same molecule, the GI50 (DU-145) was > 100 µM (inactive), the GI50 (EKVX) was > 100 µM (inactive) and the GI50 (SR) was > 100 µM (inactive). For the same molecule, the GI50 (SN12C) was > 100 µM (inactive), the GI50 (SK-MEL-28) was > 100 µM (inactive) and the GI50 (MCF7) was > 100 µM (inactive). For the same molecule, the GI50 (IGROV-1) was > 100 µM (inactive), the GI50 (SNB-75) was > 100 µM (inactive) and the GI50 (T47D) was > 100 µM (inactive). The GI50 (HL-60) was > 100 µM (inactive), the GI50 (SK-MEL-2) was > 100 µM (inactive) and the GI50 (SNB-19) was > 100 µM (inactive). The GI50 (M14) was > 100 µM (inactive), the GI50 (786-0) was > 100 µM (inactive) and the GI50 (LOX IMVI) was > 100 µM (inactive). The GI50 (NCI/ADR-RES) was > 100 µM (inactive), the GI50 (OVCAR-5) was > 100 µM (inactive) and the GI50 (MOLT-4) was > 100 µM (inactive).

`N/C(=N\c1c([N+](=O)[O-])cnc2ccccc12)N1CCOCC1` was tested, and the GI50 (A498) was > 100 µM (inactive), the GI50 (PC-3) was > 100 µM (inactive) and the GI50 (OVCAR-8) was > 100 µM (inactive). For the same molecule, the GI50 (ACHN) was > 100 µM (inactive), the GI50 (HOP-62) was > 100 µM (inactive) and the GI50 (OVCAR-3) was > 100 µM (inactive). For the same molecule, the GI50 (SK-MEL-5) was > 100 µM (inactive), the GI50 (UACC-257) was > 10 µM (inactive) and the GI50 (MDA-MB-231) was > 100 µM (inactive). The GI50 (U-251) was > 100 µM (inactive), the GI50 (NCI-H522) was > 100 µM (inactive) and the GI50 (K562) was > 100 µM (inactive). The GI50 (HT-29) was > 100 µM (inactive), the GI50 (SW-620) was > 100 µM (inactive) and the GI50 (NCI-H460) was > 100 µM (inactive). For the same molecule, the GI50 (SF-268) was > 100 µM (inactive), the GI50 (A549) was > 100 µM (inactive) and the GI50 (UO-31) was > 100 µM (inactive). The GI50 (MDA-N) was > 100 µM (inactive), the GI50 (SF-539) was > 100 µM (inactive) and the GI50 (HCT-15) was > 100 µM. The GI50 (CCRF-CEM) was > 100 µM (inactive), the GI50 (TK-10) was > 100 µM (inactive) and the GI50 (KM12) was > 100 µM (inactive). For the same molecule, the GI50 (SK-OV-3) was > 100 µM (inactive), the GI50 (NCI-H23) was > 100 µM (inactive) and the GI50 (BT-549) was > 100 µM (inactive). The GI50 (MDA-MB-435) was > 100 µM (inactive), the GI50 (NCI-H226) was > 100 µM (inactive) and the GI50 (CAKI-1) was > 100 µM (inactive). For the same molecule, the GI50 (RPMI-8226) was > 100 µM (inactive), the GI50 (HCT-116) was > 100 µM (inactive) and the GI50 (Hs-578T) was > 100 µM (inactive). For the same molecule, the GI50 (COLO 205) was > 100 µM (inactive), the GI50 (SF-295) was 86.9 µM (inactive) and the GI50 (DU-145) was > 100 µM (inactive). For the same molecule, the GI50 (EKVX) was > 100 µM (inactive), the GI50 (SR) was > 100 µM (inactive) and the GI50 (SN12C) was > 100 µM (inactive). The GI50 (SK-MEL-28) was > 100 µM (inactive), the GI50 (MCF7) was > 100 µM (inactive) and the GI50 (IGROV-1) was > 100 µM (inactive). For the same molecule, the GI50 (SNB-75) was > 100 µM (inactive), the GI50 (OVCAR-4) was > 100 µM (inactive) and the GI50 (T47D) was > 100 µM (inactive). The GI50 (HL-60) was > 100 µM (inactive), the GI50 (SK-MEL-2) was > 100 µM (inactive) and the GI50 (SNB-19) was > 100 µM (inactive). For the same molecule, the GI50 (M14) was > 100 µM (inactive), the GI50 (786-0) was > 100 µM (inactive) and the GI50 (LOX IMVI) was > 100 µM (inactive). For the same molecule, the GI50 (NCI/ADR-RES) was 95.9 µM (inactive), the GI50 (UACC-62) was > 100 µM (inactive) and the GI50 (OVCAR-5) was > 100 µM (inactive). For the same molecule, the GI50 (MOLT-4) was > 100 µM (inactive).

With `c1cc(-c2ccc(-c3ccc(C4=NC5CCCCC5N4)cc3)o2)ccc1C1=NC2CCCCC2N1` (stereo not drawn) the GI50 (A498) was 2.86 µM (inactive), the GI50 (PC-3) was 1.46 µM (inactive) and the GI50 (OVCAR-8) was 1.79 µM (inactive). The GI50 (ACHN) was 2.36 µM (inactive), the GI50 (HOP-62) was 1.5 µM (inactive) and the GI50 (OVCAR-3) was 1.85 µM (inactive). The GI50 (SK-MEL-5) was 1.57 µM (inactive), the GI50 (UACC-257) was 1.75 µM (inactive) and the GI50 (HCC 2998) was 1.3 µM (inactive). The GI50 (MDA-MB-231) was 1.5 µM (inactive), the GI50 (U-251) was 1.44 µM (inactive) and the GI50 (NCI-H522) was 1.61 µM (inactive). The GI50 (K562) was 1.42 µM (inactive), the GI50 (HT-29) was 1.39 µM (inactive) and the GI50 (SW-620) was 2.56 µM (inactive). The GI50 (NCI-H460) was 1.84 µM (inactive), the GI50 (SF-268) was 1.55 µM (inactive) and the GI50 (A549) was 1.71 µM (inactive). The GI50 (UO-31) was 2.99 µM (inactive), the GI50 (MDA-N) was 1.67 µM (inactive) and the GI50 (SF-539) was 1.73 µM (inactive). The GI50 (HCT-15) was 5.19 µM, the GI50 (HOP-92) was 1.43 µM (inactive) and the GI50 (CCRF-CEM) was 1.79 µM (inactive). For the same molecule, the GI50 (TK-10) was 5.19 µM (inactive), the GI50 (KM12) was 1.46 µM (inactive) and the GI50 (SK-OV-3) was 1.64 µM (inactive). The GI50 (NCI-H23) was 1.58 µM (inactive), the GI50 (BT-549) was 2.11 µM (inactive) and the GI50 (MDA-MB-435) was 1.86 µM (inactive). The GI50 (NCI-H226) was 1.85 µM (inactive), the GI50 (CAKI-1) was 5.92 µM (inactive) and the GI50 (RPMI-8226) was 1.76 µM (inactive). For the same molecule, the GI50 (HCT-116) was 1.51 µM (inactive), the GI50 (Hs-578T) was 1.55 µM (inactive) and the GI50 (COLO 205) was 1.5 µM (inactive). For the same molecule, the GI50 (SF-295) was 1.84 µM (inactive), the GI50 (DU-145) was 1.6 µM (inactive) and the GI50 (EKVX) was 1.69 µM (inactive). The GI50 (SN12C) was 1.47 µM (inactive), the GI50 (SK-MEL-28) was 1.83 µM (inactive) and the GI50 (MCF7) was 1.21 µM (inactive). For the same molecule, the GI50 (SNB-75) was 1.68 µM (inactive), the GI50 (RXF 393) was 1.95 µM (inactive) and the GI50 (OVCAR-4) was 1.56 µM (inactive). The GI50 (T47D) was 1.98 µM (inactive), the GI50 (Malme-3M) was 1.73 µM (inactive) and the GI50 (HL-60) was 2.31 µM (inactive). The GI50 (SK-MEL-2) was 1.82 µM (inactive), the GI50 (SNB-19) was 1.47 µM (inactive) and the GI50 (M14) was 1.64 µM (inactive). For the same molecule, the GI50 (786-0) was 1.49 µM (inactive), the GI50 (LOX IMVI) was 1.56 µM (inactive) and the GI50 (NCI/ADR-RES) was 28.4 µM (inactive). For the same molecule, the GI50 (UACC-62) was 1.71 µM (inactive), the GI50 (OVCAR-5) was 2.09 µM (inactive) and the GI50 (MOLT-4) was 1.8 µM (inactive).

Reference: ChEMBL document CHEMBL1201862, “PubChem BioAssay data set” (2004)
